Experimental data taken from ChEMBL document CHEMBL1136132, “Effect of structural modification on the inhibitory selectivity of rutaecarpine derivatives on human CYP1A1, CYP1A2, and CYP1B1” (Bioorg Med Chem Lett, 2003).

Columns and labels:
Cytochrome P450 1A1 = target: T1, Cytochrome P450 1A1 (Homo sapiens, UniProt P04798); experiment: Inhibition of Cytochrome P450 1A1 enzyme in bacterial membrane expressing human P450s; assay type: ADME, cell membranes
T1 sequence (P04798 whole entry): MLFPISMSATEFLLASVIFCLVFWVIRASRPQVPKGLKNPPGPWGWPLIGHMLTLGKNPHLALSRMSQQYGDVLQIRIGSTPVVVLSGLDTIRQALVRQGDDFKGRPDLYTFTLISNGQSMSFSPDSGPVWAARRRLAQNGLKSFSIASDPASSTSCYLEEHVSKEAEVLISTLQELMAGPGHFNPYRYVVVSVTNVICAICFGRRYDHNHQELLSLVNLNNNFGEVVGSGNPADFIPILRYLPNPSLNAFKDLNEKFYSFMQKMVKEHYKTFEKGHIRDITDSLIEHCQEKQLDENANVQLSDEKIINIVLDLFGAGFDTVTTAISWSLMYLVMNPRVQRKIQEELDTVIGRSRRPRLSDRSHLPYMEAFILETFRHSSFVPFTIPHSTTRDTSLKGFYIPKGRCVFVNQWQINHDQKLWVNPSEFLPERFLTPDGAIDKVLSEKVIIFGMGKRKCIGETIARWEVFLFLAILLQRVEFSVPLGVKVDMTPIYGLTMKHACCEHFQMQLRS

Cytochrome P450 1B1 [1] = target: T2, Cytochrome P450 1B1 (Homo sapiens, UniProt Q16678); experiment: Inhibition of Cytochrome P450 1B1 enzyme in bacterial membrane expressing human P450s; assay type: ADME, cell membranes
T2 sequence (Q16678 whole entry): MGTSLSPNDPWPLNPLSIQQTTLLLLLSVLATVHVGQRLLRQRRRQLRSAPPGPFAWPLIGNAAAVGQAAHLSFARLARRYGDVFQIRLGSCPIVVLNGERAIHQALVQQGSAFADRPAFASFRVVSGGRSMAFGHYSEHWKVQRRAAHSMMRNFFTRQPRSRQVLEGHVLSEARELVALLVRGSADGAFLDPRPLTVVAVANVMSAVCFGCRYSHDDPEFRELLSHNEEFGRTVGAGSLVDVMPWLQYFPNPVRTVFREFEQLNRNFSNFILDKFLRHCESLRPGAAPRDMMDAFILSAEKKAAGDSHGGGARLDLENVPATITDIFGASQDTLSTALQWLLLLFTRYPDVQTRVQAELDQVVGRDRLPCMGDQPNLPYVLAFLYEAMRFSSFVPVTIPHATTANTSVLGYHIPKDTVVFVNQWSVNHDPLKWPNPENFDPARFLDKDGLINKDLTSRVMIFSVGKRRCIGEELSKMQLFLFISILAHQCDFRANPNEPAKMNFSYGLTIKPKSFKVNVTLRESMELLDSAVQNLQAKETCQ

Cytochrome P450 1A2 = target: T3, Cytochrome P450 1A2 (Homo sapiens, UniProt P05177); experiment: Inhibition of Cytochrome P450 1A2 enzyme in bacterial membrane expressing human P450s; assay type: ADME, cell membranes
T3 sequence (P05177 whole entry): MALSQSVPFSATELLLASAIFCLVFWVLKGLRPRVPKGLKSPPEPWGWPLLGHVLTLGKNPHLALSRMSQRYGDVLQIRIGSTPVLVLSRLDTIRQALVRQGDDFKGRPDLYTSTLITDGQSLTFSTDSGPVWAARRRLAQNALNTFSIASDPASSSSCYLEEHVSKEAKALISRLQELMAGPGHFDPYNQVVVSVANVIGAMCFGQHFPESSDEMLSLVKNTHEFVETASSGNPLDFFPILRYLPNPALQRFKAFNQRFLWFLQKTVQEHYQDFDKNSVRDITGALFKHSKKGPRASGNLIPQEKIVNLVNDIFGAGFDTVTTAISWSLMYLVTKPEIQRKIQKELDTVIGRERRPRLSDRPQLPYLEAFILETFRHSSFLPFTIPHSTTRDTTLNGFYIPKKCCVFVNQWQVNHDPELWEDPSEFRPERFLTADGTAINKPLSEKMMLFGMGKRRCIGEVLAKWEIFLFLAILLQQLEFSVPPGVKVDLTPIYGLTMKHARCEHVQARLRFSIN

[2] = Ratio for inhibition of Cytochrome P450 1A1 to that of Cytochrome P450 1A2; assay type: ADME
[3] = Ratio for inhibition of Cytochrome P450 1B1 to that of Cytochrome P450 1A2; assay type: ADME
Cytochrome P450 1B1 [4] = target: T2, Cytochrome P450 1B1; experiment: Inhibition of human Cytochrome P450 1B1 expressed in bacterial membrane; assay type: ADME, cell membranes

Row | Structure (SMILES) | IC50 (Cytochrome P450 1A1) | IC50 (Cytochrome P450 1B1 [1]) | IC50 (Cytochrome P450 1A2) | IC50 (Cytochrome P450 1B1 [4]) | ratio [2] | ratio [3]
1 | COc1ccc2c3c([nH]c2c1)-c1nc2ccccc2c(=O)n1CC3 | 2000 nM | 110 nM | 1980 nM |  | 1 | 0.06
2 | COc1ccc2c(=O)n3c(nc2c1)-c1[nH]c2ccccc2c1CC3 | 850 nM | 170 nM | 76 nM |  | 11 | 2
3 | COc1ccc2nc3n(c(=O)c2c1)CCc1c-3[nH]c2ccccc12 | 1280 nM | 140 nM | 280 nM |  | 5 | 0.5
4 | COc1cc2nc3n(c(=O)c2cc1OC)CCc1c-3[nH]c2ccccc12 | 1580 nM | 160 nM | > 500000 nM |  | < 0.003 | < 0.0003
5 | COc1ccc2[nH]c3c(c2c1)CCn1c-3nc2ccccc2c1=O | 1780 nM |  | 2920 nM | 84 nM | 0.6 | 0.03
6 | O=c1c2cc(Br)ccc2nc2n1CCc1c-2[nH]c2ccccc12 | 2470 nM | 120 nM | 1500 nM |  | 16 | 0.8
7 | COc1ccc2nc3n(c(=O)c2c1OC)CCc1c-3[nH]c2ccccc12 | 870 nM | 140 nM | 1730 nM |  | 0.5 | 0.08
8 | C[n+]1c2n(c(=O)c3ccccc31)CCc1c-2[nH]c2ccccc12 [DEHYDROEVODIAMINE] | 18000 nM | 330 nM | 5630 nM |  | 3 | 0.06
9 | CN1c2ccccc2C(=O)N2CCc3c([nH]c4ccccc34)[C@H]21 [EVODIAMINE] | 24600 nM | 690 nM | 16300 nM |  |  | 
10 | CN1c2ccccc2C(=O)N2CCc3c([nH]c4ccccc34)[C@@H]21 [EVODIAMINE] |  |  |  |  | 2 | 0.04

Continued, in another order:

Row | IC50 (Cytochrome P450 1A1) | IC50 (Cytochrome P450 1B1 [1]) | IC50 (Cytochrome P450 1A2) | IC50 (Cytochrome P450 1B1 [4]) | Structure (SMILES) | ratio [2] | ratio [3]
11 | 450 nM | 71 nM | 11 nM |  | COc1cccc2c(=O)n3c(nc12)-c1[nH]c2ccccc2c1CC3 | 45 | 7
12 | 420 nM | 80 nM | 41 nM |  | COc1cc(OC)c2nc3n(c(=O)c2c1)CCc1c-3[nH]c2ccccc12 | 11 | 2
13 |  |  | 30 nM |  | Oc1c2ccccc2nc2c3nc4ccccc4c-3ccn12 |  | 
14 | 1920 nM | 90 nM | 29 nM |  | O=c1c2cc(Cl)ccc2nc2n1CCc1c-2[nH]c2ccccc12 | 64 | 3
15 | 970 nM | 2400 nM | 29 nM |  | COc1ccc2c(=O)n3c(nc2c1OC)-c1[nH]c2ccccc2c1CC3 | 33 | 8
16 | 1200 nM | 37 nM | 39 nM |  | O=c1c2ccc(Cl)cc2nc2n1CCc1c-2[nH]c2ccccc12 | 30 | 1
17 | 260 nM | 55 nM | 22 nM |  | O=c1c2ccccc2nc2n1CCc1c-2[nH]c2ccccc12 [RUTAECARPINE] | 13 | 3
